Literature values, collected in patent US20150265683A1, “Stable aqueous composition comprising human insulin or an analogue or derivative thereof” (WOCKHARDT LIMITED, priority 2012, published 2015).

Details: for duration of action: after administration

Substance	onset of action (begins to work) after administration [min]	duration of action [h]	onset of action (starts working) after administration [h]
Regular insulin: Short-acting insulin	≤ 30	5 to 8	–
Insulin detemir	–	–	1 to 2
Isophane Insulin: Intermediate-acting insulin	–	16 to 24	1 to 3
Asp^B28 human insulin [insulin aspart]	5 to 15	3 to 4	–
Lys^B28 Pro^B29 human insulin [insulin lispro]	5 to 15	3 to 4	–
Gly(A21)-Arg(B31)-Arg(B32)-human insulin [Insulin glargine]	–	–	1 to 2
